The values below come from article PMC11584562 (The Journal of Biological Chemistry, 2024).

The target in data set [1] is T1, CnAcs1 (Cryptococcus neoformans, UniProt J9VFT1).
T1 sequence (J9VFT1 1-680): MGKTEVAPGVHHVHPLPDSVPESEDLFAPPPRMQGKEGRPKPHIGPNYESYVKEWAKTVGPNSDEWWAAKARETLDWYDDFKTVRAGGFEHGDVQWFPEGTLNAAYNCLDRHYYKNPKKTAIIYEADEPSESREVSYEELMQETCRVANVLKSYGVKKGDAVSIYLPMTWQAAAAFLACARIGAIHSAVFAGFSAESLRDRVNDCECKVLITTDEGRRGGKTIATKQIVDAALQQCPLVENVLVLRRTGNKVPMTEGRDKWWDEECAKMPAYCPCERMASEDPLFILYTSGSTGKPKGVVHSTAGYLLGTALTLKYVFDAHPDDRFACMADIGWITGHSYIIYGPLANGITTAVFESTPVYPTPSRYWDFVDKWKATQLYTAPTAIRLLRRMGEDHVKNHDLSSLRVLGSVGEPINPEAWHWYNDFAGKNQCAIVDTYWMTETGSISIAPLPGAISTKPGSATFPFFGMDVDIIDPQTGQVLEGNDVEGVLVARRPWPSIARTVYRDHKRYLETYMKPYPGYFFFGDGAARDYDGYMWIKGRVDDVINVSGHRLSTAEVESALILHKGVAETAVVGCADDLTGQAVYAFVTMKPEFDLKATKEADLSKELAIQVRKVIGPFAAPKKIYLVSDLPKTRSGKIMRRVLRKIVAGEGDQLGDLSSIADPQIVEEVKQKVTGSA
The data set is described as follows: biochemical.

Data set [2] concerns the target T2, LiAcs1 (Leishmania infantum, UniProt A4I093).
T2 sequence (A4I093 1-705): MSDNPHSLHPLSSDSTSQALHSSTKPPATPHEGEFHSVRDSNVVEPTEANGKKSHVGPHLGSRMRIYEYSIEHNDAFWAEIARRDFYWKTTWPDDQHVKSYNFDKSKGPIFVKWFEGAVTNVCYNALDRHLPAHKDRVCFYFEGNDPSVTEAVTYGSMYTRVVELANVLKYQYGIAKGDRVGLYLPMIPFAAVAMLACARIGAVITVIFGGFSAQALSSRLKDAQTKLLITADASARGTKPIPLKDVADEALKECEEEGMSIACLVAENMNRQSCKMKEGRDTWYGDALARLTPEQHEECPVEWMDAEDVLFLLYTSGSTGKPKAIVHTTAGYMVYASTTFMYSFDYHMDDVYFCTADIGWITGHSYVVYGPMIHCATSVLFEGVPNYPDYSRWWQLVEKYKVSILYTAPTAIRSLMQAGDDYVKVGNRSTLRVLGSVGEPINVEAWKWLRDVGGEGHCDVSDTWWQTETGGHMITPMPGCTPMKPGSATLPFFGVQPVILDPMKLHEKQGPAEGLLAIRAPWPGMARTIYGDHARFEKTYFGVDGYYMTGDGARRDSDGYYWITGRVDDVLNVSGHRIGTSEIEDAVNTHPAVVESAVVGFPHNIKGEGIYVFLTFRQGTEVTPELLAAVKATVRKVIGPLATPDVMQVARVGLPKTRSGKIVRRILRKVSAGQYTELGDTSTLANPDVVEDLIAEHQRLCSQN
The data set is described as follows: EnzChek pyrophosphate-release coupled assay. In kind it is biochemical.

Data set [3] addresses T3, CnKbc1 (Cryptococcus neoformans, UniProt J9VT24).
T3 sequence (J9VT24 1-696): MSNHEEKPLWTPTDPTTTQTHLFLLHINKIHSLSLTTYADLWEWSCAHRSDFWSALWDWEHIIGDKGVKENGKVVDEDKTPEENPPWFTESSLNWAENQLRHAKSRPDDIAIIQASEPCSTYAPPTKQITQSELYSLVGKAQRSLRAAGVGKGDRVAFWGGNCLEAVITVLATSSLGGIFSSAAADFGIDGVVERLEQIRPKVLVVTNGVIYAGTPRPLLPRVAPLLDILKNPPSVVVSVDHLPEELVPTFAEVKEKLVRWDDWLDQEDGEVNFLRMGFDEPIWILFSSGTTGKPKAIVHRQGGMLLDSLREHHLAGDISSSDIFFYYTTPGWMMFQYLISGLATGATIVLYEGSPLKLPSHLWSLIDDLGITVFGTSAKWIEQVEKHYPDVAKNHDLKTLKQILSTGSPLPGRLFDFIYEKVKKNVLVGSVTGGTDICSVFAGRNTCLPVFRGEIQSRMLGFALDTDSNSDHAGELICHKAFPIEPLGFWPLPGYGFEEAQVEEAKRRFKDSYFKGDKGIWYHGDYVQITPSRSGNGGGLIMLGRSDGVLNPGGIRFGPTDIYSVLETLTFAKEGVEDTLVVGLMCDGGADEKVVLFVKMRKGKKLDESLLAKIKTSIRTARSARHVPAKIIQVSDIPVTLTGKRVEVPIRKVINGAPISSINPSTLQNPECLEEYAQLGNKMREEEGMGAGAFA
The data set is described as follows: biochemical.

Data set [4] has as its target T3, CnKbc1. The data set is described as follows: EnzChek pyrophosphate-release coupled assay. Format: biochemical.
The target of data set [5] is T1, CnAcs1. The data set is described as follows: EnzChek pyrophosphate-release coupled assay. Format: biochemical.
In data set [6] the target is T2, LiAcs1. The data set is described as follows: biochemical.
The target of data set [7] is T2, LiAcs1. The data set is described as follows: biochemical. The source holds these as a separate data set.
Data set [8] deals with T1, CnAcs1. The data set is described as follows: biochemical. The source holds these as a separate data set.
In data set [9] the target is T3, CnKbc1. The data set is described as follows: biochemical. The source holds these as a separate data set.
Substrate in data set [10]: CC(=O)CC(=O)O
The data set is described as follows: EnzChek pyrophosphate-release coupled assay. The note with it: ATP and CoA as co-substrates, 4 mM MgCl2, 37 °C. Format: biochemical, Leishmania infantum.

Substrate in data set [11]: CC(=O)O
The data set is described as follows: EnzChek pyrophosphate-release coupled assay. Format: biochemical, Leishmania infantum. To be noted: ATP and CoA as co-substrates, 4 mM MgCl2, 37 °C.

Some results are limits rather than exact numbers.

As a reminder, the IC50 is the concentration needed to halve the response being measured. Low values mean greater potency, high ones weaker potency. For `COP(=O)(O)OC[C@H]1O[C@@H](n2cnc3c(N)ncnc32)[C@H](O)[C@@H]1O` [i, Methyl-AMP], the values for the 50% inhibitory concentration (IC50) at CnAcs1 [1], on LiAcs1 [2] and on CnKbc1 [3] were more than 100 µM, 69.9 µM and more than 100 µM, respectively.
As for `CCOP(=O)(O)OC[C@H]1O[C@@H](n2cnc3c(N)ncnc32)[C@H](O)[C@@H]1O` [ii, Ethyl-AMP], the values for the 50% inhibitory concentration (IC50) against CnKbc1 [4], against LiAcs1 [2] and against CnAcs1 [5] were more than 100 µM, 2 µM and 8 µM, respectively.
For `Nc1ncnc2c1ncn2[C@@H]1O[C@H](COP(=O)(O)OC2CC2)[C@@H](O)[C@H]1O` [iii, Cyclopropyl-AMP], the figures for the IC50 against LiAcs1 [2], against CnKbc1 [3] and on CnAcs1 [5] were 2.2 µM, more than 100 µM and 8.7 µM, respectively.
The matching figures for `CCCOP(=O)(O)OC[C@H]1O[C@@H](n2cnc3c(N)ncnc32)[C@H](O)[C@@H]1O` [iv, Propyl-AMP]: 13.5 µM, more than 100 µM and 21.1 µM.
On the same counts, the results for `CC(C)OP(=O)(O)OC[C@H]1O[C@@H](n2cnc3c(N)ncnc32)[C@H](O)[C@@H]1O` [v, Isopropyl-AMP] are 6.7 µM, more than 100 µM and 25.3 µM.
On the same counts, the results for `C=CCOP(=O)(O)OC[C@H]1O[C@@H](n2cnc3c(N)ncnc32)[C@H](O)[C@@H]1O` [vi, Allyl-AMP] are 12.5 µM, more than 100 µM and 41 µM.
`C#CCOP(=O)(O)OC[C@H]1O[C@@H](n2cnc3c(N)ncnc32)[C@H](O)[C@@H]1O` [vii, Propargyl-AMP]: the 50% inhibitory concentration (IC50) was 10.2 µM against LiAcs1 [2], more than 100 µM on CnKbc1 [3] and 55.1 µM against CnAcs1 [5].
Regarding `CCCCOP(=O)(O)OC[C@H]1O[C@@H](n2cnc3c(N)ncnc32)[C@H](O)[C@@H]1O` [viii, Butyl-AMP], the figures for the 50% inhibitory concentration (IC50) against CnKbc1 [4], on LiAcs1 [6] and against CnAcs1 [1] were 7.8 µM, more than 100 µM and more than 100 µM, respectively.
In the case of `Nc1ncnc2c1ncn2[C@@H]1O[C@H](COP(=O)(O)OC2CCCC2)[C@@H](O)[C@H]1O` [x, Cyclopentyl-AMP], the IC50 on LiAcs1 [7], at CnAcs1 [8] and against CnKbc1 [9] was more than 100 µM each time.

B1: LiAcs1 (Leishmania infantum) (protein)
chain: MSDNPHSLHPLSSDSTSQALHSSTKPPATPHEGEFHSVRDSNVVEPTEANGKKSHVGPHLGSRMRIYEYSIEHNDAFWAEIARRDFYWKTTWPDDQHVKSYNFDKSKGPIFVKWFEGAVTNVCYNALDRHLPAHKDRVCFYFEGNDPSVTEAVTYGSMYTRVVELANVLKYQYGIAKGDRVGLYLPMIPFAAVAMLACARIGAVITVIFGGFSAQALSSRLKDAQTKLLITADASARGTKPIPLKDVADEALKECEEEGMSIACLVAENMNRQSCKMKEGRDTWYGDALARLTPEQHEECPVEWMDAEDVLFLLYTSGSTGKPKAIVHTTAGYMVYASTTFMYSFDYHMDDVYFCTADIGWITGHSYVVYGPMIHCATSVLFEGVPNYPDYSRWWQLVEKYKVSILYTAPTAIRSLMQAGDDYVKVGNRSTLRVLGSVGEPINVEAWKWLRDVGGEGHCDVSDTWWQTETGGHMITPMPGCTPMKPGSATLPFFGVQPVILDPMKLHEKQGPAEGLLAIRAPWPGMARTIYGDHARFEKTYFGVDGYYMTGDGARRDSDGYYWITGRVDDVLNVSGHRIGTSEIEDAVNTHPAVVESAVVGFPHNIKGEGIYVFLTFRQGTEVTPELLAAVKATVRKVIGPLATPDVMQVARVGLPKTRSGKIVRRILRKVSAGQYTELGDTSTLANPDVVEDLIAEHQRLCSQN
For B1, the Km is recorded as 88 (95% CI 71, 110) μM in data set [10] and 61 (95% CI 45, 83) μM in data set [11].
